According to patent US11447577B2, “Cyclodextrin based polymers, methods, compositions and applications thereof” (priority 2016, dated 2022):

Key:
in vivo = assay: in vivo; design: species or system mice; conditions: mouse, sc, 500 mg/kg
Protocol: The effects of various cyclodextrin polymers were tested on WT mice. WT mice were injected with a single sub-cutaneous dose of 500 mg/kg of HPbCD, Polymer A, or Polymer B. PK measurements were taken every 2 hours via HPLC-UV measurements of mouse plasma. FIG. 28 presents the half-life results of this experiment. […] The recovery was 90% from plasma and tissues.

Npc1^nih mice = assay: Efficacy study in Npc1^nih mouse model (body weight, balance beam test, survival); type: in vivo; conditions: HPβCD 4 mg/g s.c. weekly starting at PN7
Protocol: Npc1^nih mouse model is a model for an early onset and faster progressing human diseases. This mouse model arises from the insertion of an active retrotransposon, a spontaneous mutation, which generated a frameshift resulting in a “knock out” of Npc1 gene: small amount of truncated Npc1 mRNA and no protein.
Npc1^nih mice received Polymer B (0.8 mg/g body weight) via injection (s.c.) at the scruff of the neck at PN4, PN7, and PN14. Another group of Npc1^nih mice received HPβCD (4 mg/g body weight; obtained from Sigma-Aldrich and used as received, CAS: 128446-35-5) via injected (s.c.) weekly starting at PN7. Control mice received PBS (sham). Mean volume of the injection was between 50 to 100 μL according to mice size. The body weight, motor behaviour, and survival rate of each group of mice were analyzed.
Example 5 was repeated for Npc1^nih mice receiving Polymer A (0.4 mg/g body weight) via injected (s.c.) weekly starting at PN7 and ending at PN70. The body weight and motor behaviours were analyzed. The results of these analyses were compared to the control mice results from Example 5. […]
The effects of various cyclodextrin polymers, doses, and injection schedules were tested on Npc1^nih mice. […] The body weight, motor behaviour, and survival rate of each group of mice were analyzed.

nmf164 mice = conditions: 4000 mg/kg; cited from earlier work

With `CC(O)COC[C@H]1O[C@@H]2O[C@H]3[C@H](O)[C@@H](O)[C@@H](O[C@H]4[C@H](O)[C@@H](O)[C@@H](O[C@H]5[C@H](O)[C@@H](O)[C@@H](O[C@H]6[C@H](O)[C@@H](O)[C@@H](O[C@H]7[C@H](O)[C@@H](O)[C@@H](O[C@H]8[C@H](O)[C@@H](O)[C@@H](O[C@H]1[C@H](O)[C@H]2O)O[C@@H]8COCC(C)O)O[C@@H]7COCC(C)O)O[C@@H]6COCC(C)O)O[C@@H]5COCC(C)O)O[C@@H]4COCC(C)O)O[C@@H]3COCC(C)O` (stereo partly drawn) [HPβCD, Hydroxypropyl-β-cyclodextrin] the bioavailability (in vivo) was 42%, the “Body weight and motor behaviour assessment together (rescuing efficacy)” value (Npc1^nih mice) was “rescuing efficacy” and the Survival (Npc1^nih mice; control about 10-11 weeks) was 16-17 weeks. The Median survival (nmf164 mice) was 175 to 185 days.
